Where “and” joins values, the source holds several entries; their conditions need not be identical. Identical values can stand only once.
How the values were obtained:
A/PR/8/34 virus [1] = assay type: cell-based; conditions: 12.5 μM
[2] = system: NAD(P)H quinone oxidoreductase 1 (Nqo1); test: RT-qPCR of Nqo1 mRNA in MDCK cells with or without A/PR/8/34 virus; assay type: cell-based, canine; conditions: for NQO1 Canis lupus mRNA, ave / NQO1 Canis lupus mRNA, individual replicates: 12.5uM, MDCK, relative to virus - DMSO; for NQO1 Canis lupus mRNA, ave: ave of #1-3 exp; for NQO1 Canis lupus mRNA, individual replicates: replicates 1-3 of #1, #2, #3 exp, listed as Cyclobakuchiol A
A/WSN/33 virus [3] = test: Influenza A viral growth assay (viral titer of culture media); assay type: cell-based, influenza A H1N1 virus; conditions: A/WSN/33 (WSN), 12.5uM, average of #1-3 exp (n=9)
A/PR/8/34 virus [4] = test: as above; assay type: cell-based, influenza A H1N1 virus; set-up: viral titer of culture media, individual replicate / viral titer of culture media, ave: unit not given here; conditions: A/PR/8/34 (PR8), 12.5uM, average of #1-3 exp (n=9)
A/PR/8/34 virus [5] = test: RT-qPCR of viral mRNAs (NP, NS1, PA, PB1, PB2, M2) in infected MDCK cells; assay type: cell-based, influenza A H1N1 virus
A/WSN/33 virus [6] = test: Immunofluorescence staining of viral NP in influenza A virus-infected MDCK cells; conditions: WSN
Nrf2 = Nrf2 reporter assay (dual luciferase system) in MDCK cells; assay type: cell-based, canine
Experimental: An Nrf2 reporter assay based on the dual luciferase system was performed as previously described. The plasmid pNQO1-ARE (antioxidant response element)-Fluc, provided by Yamamoto M., expressed a Firefly luciferase gene driven by Nrf2 activation, while the plasmid pRL-TK-Rluc vector (Promega, CA, USA) expressed a Renilla luciferase gene driven by the herpes simplex viral thymidine kinase promoter as an internal control. MDCK cells were seeded in a 24-well plate at 1 × 10^5 cells/well and transfected with pNQO1-ARE-luc (0.25 μg) and pRL-TK-Rluc (0.25 μg). At 24 h post-transfection, the cells were treated with 12.5 μM cyclobakuchiols A–D in the infection medium at 37°C under 5% CO2. DMSO (0.125%) and 12.5 μM 1 were used as negative and positive controls, respectively. Total RNA was extracted from the MDCK cell lysates after 24 h of incubation. The levels of Firefly and Renilla luciferase mRNAs were analyzed by RT-qPCR and normalized to that of β-actin mRNA.

[7] = system: canine interferon-β (Ifn-β); test: RT-qPCR of Ifn-β mRNA in MDCK cells with or without A/PR/8/34 virus; assay type: cell-based; conditions: 12.5uM, relative to virus - DMSO; for MDCK IFN-b mRNA, ave: ave of #1-3 exp; for MDCK IFN-b mRNA, individual replicates: replicates 1-3 of #1, #2, #3 exp, listed as Cyclobakuchiol A
A/PR/8/34 virus [8] = test: Immunofluorescence staining of viral NP in influenza A virus-infected MDCK cells; conditions: for NP/DAPI (%) ave: average of 9 wells
Experimental: MDCK cells were seeded on a 96-well plate at 1 × 10^4 cells/well. […] Each mixture was added to the cells at 37°C in the presence of 5% CO2. […] After influenza A viral infection for 24 h, the cells were fixed with 4% paraformaldehyde in phosphate-buffered saline (PBS) for 30 min at 4°C and subsequently permeabilized by the addition of 0.3% Triton X-100 for 20 min at 25°C. A mouse primary antibody was used to detect the NP of A/PR/8/34 or A/WSN/33 viruses (FluA-NP 4F1; SouthernBiotech, AL, USA). Alexa Fluor488-conjugated goat anti-mouse IgG (H + L) antibody (Thermo Fisher Scientific) was used as the secondary antibody. Cell nuclei were then stained using diamidino-2-phenylindole (DAPI) (Thermo Fisher Scientific). Wells were photographed using a fluorescence microscope (BIOREVO BZ-X700; Keyence, Osaka, Japan). The proportion of influenza A NP-positive cells per DAPI-positive cells was calculated based on measurements recorded using BZ-X Analyzer software (Keyence).

[9] = 24h WB, average of 3 experiments
[10] = 24h WB, single experiment, listed as cyclo A
[11] = MDCK cells, PR8 virus, relative to DMSO (about 1), ave of #1-3 exp (9 values)
[12] = MDCK cells, PR8 virus, relative to DMSO, replicates 1-3 of #1, #2, #3 exp, listed as Cyclobakuchiol A

C=C[C@]1(C)CCC(C(=C)C)C(c2ccc(O)cc2)C1 (stereo in doubt) [cyclobakuchiol A]
NP/b-actin ave (A/PR/8/34 virus [1]; [9]): 0.4278 | NS1/b-actin ave (A/PR/8/34 virus [1]; [9]): 0.4825 | NP mean (western blot signal intensity, ImageJ) (A/PR/8/34 virus [1]; [10]): 46.861 and 57.758 and 73.552 | NP/b-actin (A/PR/8/34 virus [1]; [10]): 0.5523 and 0.2997 and 0.4315 | NS1/b-actin (A/PR/8/34 virus [1]; [10]): 0.4154 and 0.4658 and 0.5663 | NS1 mean (western blot signal intensity, ImageJ) (A/PR/8/34 virus [1]; [10]): 72.823 and 75.793 and 55.326 | expression level of NP protein compared with the 4 or 5 treatment groups (A/PR/8/34 virus [1]; 24 h post-infection, Fig 7C): significantly reduced | relative mRNA level of Nqo1 compared with 4- and 5-treated cells [2]: significantly higher | NQO1 Canis lupus mRNA, ave ([2]; virus + (PR8)): 1.589 | NQO1 Canis lupus mRNA, individual replicates ([2]; virus + (PR8)): 2.006 and 1.48 and 1.365 and 1.506 and 1.318 and 1.456 and 1.551 and 1.721 and 1.896 | NQO1 Canis lupus mRNA, ave ([2]; virus -): 1.2966 | NQO1 Canis lupus mRNA, individual replicates ([2]; virus -): 1.091 and 1.486 and 1.24 and 1.353 and 1.444 and 1.092 and 1.099 and 1.4686 and 1.396 | relative mRNA level of Nqo1 compared with DMSO ([2]; without A/PR/8/34 virus, 12.5 μM, 24 h): significantly upregulated | viral titer of culture media, ave (A/WSN/33 virus [3]; 12h): 10300 | viral titer of culture media, ave (A/WSN/33 virus [3]; 24h): 22944444 | viral titer of culture media, ave (A/WSN/33 virus [3]; 48h): 177111111 | viral titer of culture media, ave (A/WSN/33 virus [3]; 72h): 106555556 | viral titer of culture media, ave (A/PR/8/34 virus [4]; 12h): 31111.1 | viral titer of culture media, ave (A/PR/8/34 virus [4]; 48h): 28888.9 | viral titer of culture media, ave (A/PR/8/34 virus [4]; 72h): 20000 | reduction in the level of NP mRNA compared with 4 and 5 (A/PR/8/34 virus [5]; 12.5 μM, 24 h, Fig 6A): significantly stronger | reduction in the level of PB2 mRNA compared with 5 (A/PR/8/34 virus [5]; 12.5 μM, 24 h, Fig 6E): significantly stronger | PR8 NP gene expression qPCR, ave (A/PR/8/34 virus [5]; MDCK PR8, NP mRNA, relative (DMSO about 1), average of #1-3 exp (n=9)): 0.01993 | PR8 NP gene expression qPCR, individual replicate (A/PR/8/34 virus [5]; MDCK PR8, NP mRNA, relative (DMSO about 1), replicates of #1-3 exp, listed as Cyclobakuchiol A): 0.004781 and 0.02173 and 0.01679 and 0.02307 and 0.03646 and 0.02695 and 0.03647 and 0.007215 and 0.005883 | PR8 NS1 gene expression qPCR, ave (A/PR/8/34 virus [5]; MDCK PR8, NS1 mRNA, relative (DMSO about 1), average of #1-3 exp (n=9)): 0.01311 | PR8 NS1 gene expression qPCR, individual replicate (A/PR/8/34 virus [5]; MDCK PR8, NS1 mRNA, relative (DMSO about 1), replicates of #1-3 exp, listed as Cyclobakuchiol A): 0.006023 and 0.01703 and 0.01038 and 0.0146 and 0.02282 and 0.01557 and 0.01791 and 0.008546 and 0.005121 | PR8 PA gene expression qPCR, ave (A/PR/8/34 virus [5]; MDCK PR8, PA mRNA, relative (DMSO about 1), average of #1-3 exp (n=9)): 0.01493 | PR8 PA gene expression qPCR, individual replicate (A/PR/8/34 virus [5]; MDCK PR8, PA mRNA, relative (DMSO about 1), replicates of #1-3 exp, listed as Cyclobakuchiol A): 0.007746 and 0.01438 and 0.00964 and 0.01502 and 0.02904 and 0.01721 and 0.0228 and 0.01256 and 0.005972 | PR8 M2 gene expression qPCR, ave (A/PR/8/34 virus [5]; [11]): 0.01356 | PR8 PB1 gene expression qPCR, ave (A/PR/8/34 virus [5]; [11]): 0.01089 | PR8 PB2 gene expression qPCR, ave (A/PR/8/34 virus [5]; [11]): 0.01486 | PR8 M2 gene expression qPCR, individual replicates (A/PR/8/34 virus [5]; [12]): 0.006283 and 0.01574 and 0.01119 and 0.01541 and 0.02852 and 0.01303 and 0.01716 and 0.01044 and 0.004303 | PR8 PB1 gene expression qPCR, individual replicates (A/PR/8/34 virus [5]; [12]): 0.005833 and 0.007225 and 0.006699 and 0.007236 and 0.02285 and 0.01622 and 0.02095 and 0.006264 and 0.00475 | PR8 PB2 gene expression qPCR, individual replicates (A/PR/8/34 virus [5]; [12]): 0.006621 and 0.01468 and 0.01232 and 0.01635 and 0.03014 and 0.01618 and 0.02349 and 0.009706 and 0.004275 | NP/DAPI (%) ave (A/WSN/33 virus [6]; 3.13uM, ave of 9 values (3 exp)): 33.269% | NP/DAPI (%) ave (A/WSN/33 virus [6]; 6.25uM, ave of 9 values (3 exp)): 28.3611% | NP/DAPI (%) ave (A/WSN/33 virus [6]; 12.5uM, ave of 9 values (3 exp)): 27.0591% | NP/DAPI (%) ave (A/WSN/33 virus [6]; 25uM, ave of 9 values (3 exp)): 29.2459% | NP/DAPI (%) ave (A/WSN/33 virus [6]; ave summary, 3.13%): 33.269% | NP/DAPI (%) ave (A/WSN/33 virus [6]; ave summary, 6.25%): 28.3611% | NP/DAPI (%) ave (A/WSN/33 virus [6]; ave summary, 12.50%): 27.0591% | NP/DAPI (%) ave (A/WSN/33 virus [6]; ave summary, 25%): 29.2459% | Nrf2 activation (reporter assay) in contrast to DMSO (Nrf2; 12.5 μM, 24 h, MDCK cells): induced | pNQO1-ARE-Luc NRF2 reporter assay, ave (Nrf2; 12.5uM, relative to DMSO trans+, ave of #1-3 exp): 1.46 | pNQO1-ARE-Luc NRF2 reporter assay, individual replicates (Nrf2; 12.5uM, relative to DMSO trans+, two values each of #1, #2, #3 exp, listed as Cyclobakuchiol A): 1.665 and 1.021 and 1.596 and 1.77 and 1.598 and 1.113 | MDCK IFN-b mRNA, ave ([7]; virus +): 3.338 | MDCK IFN-b mRNA, individual replicates ([7]; virus +): 0.977 and 7.49 and 3.1238 and 7.575 and 1.945 and 2.0516 and 3.014 and 1.296 and 2.57 | MDCK IFN-b mRNA, ave ([7]; virus -): 4.43 | MDCK IFN-b mRNA, individual replicates ([7]; virus -): 0.3432 and 9.774 and 14.2997 and 12.0611 and 0.902 and 0.6358 and 0.8443 and 0.4235 and 0.5869 | percentage of influenza A NP-positive cells relative to DMSO (A/PR/8/34 virus [8]; A/PR/8/34, 3.1 μM, 24 h, Fig 4B): significantly reduced | NP/DAPI (%) ave (A/PR/8/34 virus [8]; A/PR/8/34, 3.13 uM): 4.608% | NP/DAPI (%) ave (A/PR/8/34 virus [8]; A/PR/8/34, 6.25 uM): 1.65% | NP/DAPI (%) ave (A/PR/8/34 virus [8]; A/PR/8/34, 12.5 uM): 1.121% | NP (NP-positive cell count) (A/PR/8/34 virus [8]; A/PR/8/34, 12.5 uM, single well, listed as Cyclobaku. A): 4 and 2 and 3 | NP/DAPI (%) ave (A/PR/8/34 virus [8]; A/PR/8/34, 25 uM): 0.8303% | NP/DAPI (%) (A/PR/8/34 virus [8]; A/PR/8/34, 25 uM, single well, listed as Cyclobaku. A): 2.804% and 0.7843% and 0.5666% and 0.5181% and 1.085% and 0.489% and 0.3145% and 0.3937% | IC50 (A/PR/8/34 virus [8]; Influenza A virus, PR/8, MDCK, read-out: half maximal (50%) inhibitory concentration (IC50)): 1700 ± 800 nM

— paper PMC7997032, “Organic synthesis and anti-influenza A virus activity of cyclobakuchiols A, B, C, and D” (PLoS ONE, 2021)
